In patent US20240182525A1, “NOVEL BICYCLIC COMPOUND, OPTICAL ISOMER THEREOF OR PHARMACEUTICALLY ACCEPTABLE SALT THEREOF, USE THEREOF, AND PREPARATION METHOD THEREFOR” (KOREARESEARCH INSTITUTE OF BIOSCIENCE AND BIOTECHNOLOGY, priority 2021, published 2024):

Experiments:
[1] = Cytotoxicity assay, U87MG; assay type: cell-based; details: human, U87MG cells (brain cancer), maximum concentration 100 μM
Experimental: (§1) To measure the cytotoxicity of the compound represented by Chemical Formula 1 (Chemical Formula 1-1), toxicity was measured in mouse preadipocyte 3T3-L1 cell line, human malignant melanoma A375 cell line, mouse malignant melanoma B16F10 cell line, human oral cancer MDA-MB-435 cell line, mouse breast cancer 4T1 cell line, human breast cancer MCF7 cell line, human brain cancer U87MG cell line, human glioblastoma U373MG cell line, human cervical cancer HeLa cell line, mouse embryonic fibroblast (MEF) cell line, human embryonic kidney HEK293T cell line (Korea Cell Line Bank). First, 1×10^4 cells were divided into 200 μl each in a 96-well plate using Dulbecco's Modified Eagle's Medium (DMEM) supplemented with 10% fetal bovine serum (FBS), […] streptomycin, and 50 U/ml penicillin, while maintaining various cells at 37r in an atmosphere of 5% CO2. The cells were treated with the compound of Chemical Formula 1-1 of the present invention at a maximum concentration of 100 μM and cultured for 48 hours under the same culture conditions. After the incubation, the culture media were removed and the cytotoxicity test results were confirmed (Table 2 and FIG. 3 below).

[2] = Cytotoxicity assay, MEF; assay type: cell-based; details: mouse, MEF cells (embryonic fibroblasts), maximum concentration 100 μM
Experimental: as §1

[3] = tested on: MC3T3-E1 cells; experiment: ALP activity analysis in MC3T3-E1 cell lysate; assay type: cell-based, mouse; details: 5, 10, and 20 νM, 7 days, absorbance 405 nm, FIG. 16
Experimental: In order to analyze the effect of the compound of Chemical Formula 1 according to the present invention on ALP activity, MC3T3-E1 cells, which are mouse osteoblasts, were inoculated into a 96-well plate at a concentration of 5×10^3 cell/well, and incubated overnight in growth media containing alpha-minimum essential media (alpha-MEM, JBI #008-53) supplemented with 10% fetal bovine serum (FBS, Gibco #16000, USA) and 1× antibiotics (Gibco #15240062, USA). As a negative control, an alpha minimum essential medium containing 10% FBS was used. As a positive control, 100 μg/ml of ALP-activating ascorbic acid and 10 mM of β-glycerophosphate were mixed, and the positive control was exchanged with media added with 5, 10, and 20 νM of Chemical Formula 1-1 (6-J) on Day 3, and treated for 7 days. After 7 days, the media were removed and the cells were washed with PBS, and the cultured MC3T3-E1 cells were lysed with 0.1% TritonX-100 (in PBS) solution and centrifuged to obtain only the supernatant. A predetermined amount of supernatant and ALP were added and reacted for 30 minutes, and then the absorbance was confirmed at 405 nm.

[4] = tested on: adipocyte differentiation-associated proteins in the 3T3-L1 cell line; experiment: Western blotting of adipocyte differentiation-associated proteins; assay type: cell-based, mouse; details: 7.5 μM, FIG. 10
Experimental: Additionally, in order to verify the adipogenesis inhibitory ability of the Chemical Formula 1 according to the present invention, the level of adipocyte differentiation-associated proteins in the 3T3-L1 cell line was measured. The 3T3-L1 cells were cultured in a 6-well plate (2×10^5 cell/well), and the next day, the cells were replaced with normal culture media (Undifferentiated media; UND) and differentiation induction media (Differentiation media; DM), respectively, followed by treatment with the compound of Chemical Formula 1-1 at 7.5 μM for 48 hours, and then the cells were replaced with new normal culture media (Maintaining media; MM). When replacement with normal culture media, the cells were treated with 7.5 μM of Chemical Formula 1-1, and cultured for 72 hours more, followed by Western blotting.

[5] = tested on: osteogenic differentiation-related genes (mCol1a1, mOsteocalcin, mOsterix); experiment: RT-PCR of osteogenic differentiation-related genes; assay type: cell-based, mouse; details: Day 7 of differentiation, FIG. 17
Text: In order to confirm the effect of the compound of Chemical Formula 1 according to the present invention on promoting osteogenic differentiation-related genes, the expression levels of genes promoting osteogenesis were confirmed.
To confirm genetic changes during the differentiation process, total RNA was isolated on Day 7 of differentiation using Trizol reagent (Invitrogen, CA, USA) according to the manufacturer's instructions. The cultured cells were washed twice with cold PBS and lysed with 1 ml of Trizol reagent. To the resulting product, 200 μl of chloroform was added and mixed, followed by centrifugation at 4° C. and 12000 rpm for 20 minutes to separate the supernatant. The same amount of isopropanol was added to the separated supernatant, mixed, and centrifuged again at 4° C. and 12000 rpm. The supernatant was removed, and the remaining pellet was washed three times with 70% ethanol to separate RNA. For RT-PCR, the same amount of total RNA (5 μl) was put into the RT-PCR amplification kit and reacted at 45° C. for 60 minutes to prepare complementary DNA (cDNA). RT-PCR was performed on the cDNA by using AccuPower®RT/PCR PreMix (Bioneer, Korea). Briefly, 2 μl each of 75 mM rATP, rUTP, rCTP, rGTP, enzyme mixture, and 10× reaction buffer was added to 8 μl of the cDNA solution prepared above, followed by amplification according to the manufacturer's instructions, and the quantity and quality of the amplified mRNA was evaluated using nanodrops and 1% agarose gel electrophoresis.

[6] = tested on: 3T3-L1 cells; experiment: Cytotoxicity in 3T3-L1 cells in L-conditional or Wnt3a-containing culture media; assay type: cell-based, mouse; details: 2.5 to 10 μM, Wnt3a-containing culture media (2.5%), FIG. 3
Experimental: Next, in order to confirm the cytotoxicity in the Chemical Formula 1-1 and wnt3 culture, toxicity in 3T3-L1 cells was measured on the compound of Chemical Formula 1-1 of the present invention at a concentration of 2.5 to 10 μM in L-conditional media or Wnt3a-containing culture media (2.5%).

[7] = tested on: β, a Wnt3a signaling protein; experiment: Western blotting of Wnt3a signaling protein in 3T3-L1; assay type: cell-based, mouse; details: 7.5 μM, 3T3-L1, western blotting, FIGS. 6 and 7
Experimental: To confirm the Wnt3a signaling of Chemical Formula 1-1, the protein level of β, a Wnt3a signaling protein, was measured in the 3T3-L1 cell line. The 3T3-L1 cells were cultured in a 6-well plate (2×10^5 cell/well), and the next day, the cells were replaced with normal culture media (Undifferentiated media; UND) and differentiation induction media (Differentiation media; DM), respectively, followed by treatment with the compound of Chemical Formula 1-1 at 7.5 μM for 48 hours, and then the cells were replaced with new normal culture media (Maintaining media; MM). Here, the compound of Chemical Formula 1-1 at a concentration of 7.5 μM was cultured for 72 hours, followed by western blotting. In FIGS. 6 and 7, it was confirmed that the protein level of β increased in the treatment of the compound of Chemical Formula 1-1 alone and the treatment of Chemical Formula 1-1 and Wnt3a together.

Q: Which IC50 at 48 h [1] does the source give for `CC(C)CC1NC(=O)C2CCCN2C(=O)C(C(O)C(C)C)NC(=O)CNC(=O)C(C(C)O)NC(=O)C2NC(=O)C(NC(=O)/C=C/c3ccccc3C(O)C(C)O)C(C)OC(=O)C(CC(N)=O)NC(=O)C(NC(=O)C(O)NC1=O)C(O)c1ccc(O)c(c1)Oc1ccc2cc1` (centres unmarked) [Chemical Formula 1-1] here?
A: Its IC50 at 48 h is > 100 µM.

Q: What about the IC50 at 48 h [2] of the same molecule?
A: Its IC50 at 48 h is > 100 µM.

Q: What about the ALP activity [3] of the same molecule?
A: The ALP activity was “increased”.

Q: And the “level of adipogenesis induction-associated proteins” value ([4]; compound alone, differentiated adipocytes)?
A: Its value is “lower protein levels”.

Q: What about the “level of adipogenesis induction-associated proteins” value ([4]; simultaneous treatment with Wnt3a-conditional media (2.5%)) of the same molecule?
A: Its value is “lower protein levels”.

Q: And the “mRNA expression level of mCol1a1” value [5]?
A: The value was “increase”.

Q: And the “mRNA expression level of mOsteocalcin” value [5]?
A: Its value is “increase”.

Q: What about the “mRNA expression level of mOsterix” value [5] of the same molecule?
A: Its value is “increase”.

Q: And the cytotoxicity [6]?
A: Its cytotoxicity is “cytotoxicity was not observed”.

Q: And the “protein level of β” value ([7]; compound alone)?
A: The value was “increased”.

Q: What about the “protein level of β” value ([7]; together with Wnt3a) of the same molecule?
A: Its value is “increased”.
